From patent US8404856B2, “Non-nucleoside reverse transcriptase inhibitors” (Merck Sharp & Dohme Corp., priority 2007, dated 2013)
Where a name gives a salt, the structure may show the parent alone. Read-outs that look alike come from different tables or passages of the source.

Key:
[1] = target: HIV-1 RT enzyme (wild-type) (Human immunodeficiency virus type 1 group M subtype B, UniProt P04585); test: ECL assay for inhibition of HIV reverse transcriptase (WT); format: biochemical
Experimental: (§1) 100 μL reaction mixtures were initiated with a combination of primer-template substrate (10 nM final concentration) and dNTPs (0.6 μM dNTPs, 1.25 μM BrdUTP). The heterodimeric nucleic acid substrate was generated by annealing the DNA primer pD500 (described in Shaw-Reid et al., J. Biol. Chem., 278: 2777-2780; obtained from Integrated DNA Technologies) to t500, a 500 nucleotide RNA template created by in vitro transcription (see Shaw-Reid et al., J. Biol. Chem., 278: 2777-2780). After 1 hour incubation at 37° C., reactions were quenched by 10 μL of 1 N NaOH. Microtiter plates were incubated for an additional 30 minutes at room temperature and then neutralized with 10 μL of 1 N HCl. A mixture of detection buffer containing ruthenylated anti-BrdU antibody and streptavidin coated magnetic beads were added to the plate and incubated at room temperature for 1.5 hours prior to quantification via electrochemiluminescence instrument.

[2] = target: T1, HIV reverse transcriptase with the K103N mutation (Human immunodeficiency virus type 1 group M subtype B, UniProt P04585, K690N); test: ECL assay for inhibition of mutant HIV reverse transcriptase (K103N); format: biochemical, HIV-1
T1 construct: made in house
Experimental: as §1
(§2) Analogous assays were conducted substituting mutant HIV strains to determine the […] inhibition of compounds of the present invention against mutant HIV reverse transcriptase. In one strain the reverse transcriptase has the Y181C mutation and in the other strain the reverse transcriptase has the K103N mutation. The mutations were generated with the […] site-directed mutagenesis kit (Stratagene).

[3] = target: T2, HIV reverse transcriptase with the Y181C mutation (Human immunodeficiency virus type 1 group M subtype B, UniProt P04585, Y768C); test: ECL assay for inhibition of mutant HIV reverse transcriptase (Y181C); format: biochemical, HIV-1
T2 construct: made in house
Experimental: as §1, §2

[4] = system: wild type HIV-1; test: Spread assay: inhibition of acute HIV-1 infection of T-lymphoid cells (WT); format: cell-based; conditions: Human immunodeficiency virus 1, T-lymphoid, read-out: Spread (WT) CIC95 (10% FBS)
Experimental: (§3) Assays for the inhibition of acute HIV-1 infection of T-lymphoid cells (alternatively referred to herein as the “spread assay”) were conducted in accordance with Vacca, J. P. et al., Proc. Natl. Acad. Sci. USA 1994, 91: 4096. The assays tested for inhibition of wild type HIV-1 and of HIV strains containing the Y181C or K103N mutation. […] Table C also reports the CIC95 values of certain of the title compounds of Examples 1-25 obtained in the assays employing the Y181C mutant strain and the K103N mutant strain.

[5] = system: HIV strain containing the K103N mutation; test: Spread assay: inhibition of acute HIV-1 infection of T-lymphoid cells (K103N); format: cell-based; conditions: Human immunodeficiency virus 1, T-lymphoid, read-out: Spread (K103N) CIC95 (10% FBS)
Experimental: as §3

[6] = system: HIV strain containing the Y181C mutation; test: Spread assay: inhibition of acute HIV-1 infection of T-lymphoid cells (Y181C); format: cell-based; conditions: Human immunodeficiency virus 1, T-lymphoid, read-out: Spread (Y181C) CIC95 (10% FBS)
Experimental: as §3

[7] = system: T-lymphoid cells; format: cell-based
Experimental: Cytotoxicity was determined by microscopic examination of the cells in each well in the spread assay, wherein a trained analyst observed each culture for any of the following morphological changes as compared to the control cultures: pH imbalance, cell abnormality, cytostatic, cytopathic, or crystallization (i.e., the compound is not soluble or forms crystals in the well). The toxicity value assigned to a given compound is the lowest concentration of the compound at which one of the above changes is observed.

[8] = wild-type HIV-1 RT, read-out: ECL Assay (WT) IC50
[9] = K103N mutant RT, read-out: ECL Assay (K103N) IC50
[10] = Y181C mutant RT, read-out: ECL Assay (Y181C) IC50

Row | Compound | IC50 [1, 8] [nM] | IC50 [2, 9] [nM] | IC50 [3, 10] [nM] | IC95 ([4]; wild type HIV-1, 10% FBS) [nM] | IC95 [5] [nM] | IC95 [6] [nM] | Cytotoxicity: no cytotoxicity at concentrations up to [7] [nM] | IC50 [1] [nM] | IC50 [2] [nM] | IC50 [3] [nM] | IC95 [4] [nM]
1 | N#Cc1cc(Cl)cc(Oc2nc(NCc3n[nH]c4ncccc34)c(Cl)cc2F)c1 [Compound 1-7, 3-chloro-5-({5-chloro-3-fluoro-6-[(1H-pyrazolo[3,4-b]pyridin-3-ylmethyl)amino]pyridin-2-yl}oxy)benzonitrile] | 0.3 | 1.5 | 0.4 | 3 | 94 | 13 | > 833 | – | – | – | –
2 | N#Cc1cc(Cl)cc(Oc2nc(NCc3n[nH]c4nc(N)ccc34)c(Cl)cc2F)c1 [Compound 2-7, 3-[(6-{[(6-amino-1H-pyrazolo[3,4-b]pyridin-3-yl)methyl]amino}-5-chloro-3-fluoropyridin-2-yl)oxy]-5-chlorobenzonitrile] | 0.5 | 0.6 | 1 | 3 | 28 | 14 | > 833 | – | – | – | –
3 | N#Cc1cc(Cl)cc(Oc2cc(CCc3n[nH]c4ncccc34)[nH]c(=O)c2Cl)c1 [Compound 3-8, 3-chloro-5-({3-chloro-2-oxo-6-[2-(1H-pyrazolo[3,4-b]pyridin-3-yl)ethyl]-1,2-dihydropyridin-4-yl}oxy)benzonitrile] | 1.9 | 4.7 | 3 | 7 | 31 | 19 | > 833 | – | – | – | –
4 | N#Cc1cc(Cl)cc(Oc2cc(CCc3n[nH]c4ncccc34)[nH]c(=O)c2)c1 [Compound 3-9, 3-chloro-5-({2-oxo-6-[2-(1H-pyrazolo[3,4-b]pyridin-3-yl)ethyl]-1,2-dihydropyridin-4-yl}oxy)benzonitrile] | 3.8 | 32 | 11 | 55 | 320 | 360 | > 833 | – | – | – | –
5 | N#Cc1cc(Cl)cc(Oc2cc(CCc3n[nH]c4nc(N)ccc34)[nH]c(=O)c2Cl)c1 [Compound 4-4, 3-({6-[2-(6-amino-1H-pyrazolo[3,4-b]pyridin-3-yl)ethyl]-3-chloro-2-oxo-1,2-dihydropyridin-4-yl}oxy)-5-chlorobenzonitrile] | 1.6 | 14 | 7.9 | 39 | 207 | 438 | > 833 | – | – | – | –
6 | N#Cc1cc(Cl)cc(Oc2c(F)c(NCc3n[nH]c4ncccc34)nc(F)c2Cl)c1 [Compound 10-4, 3-chloro-5-({3-chloro-2,5-difluoro-6-[(1H-pyrazolo[3,4-b]pyridin-3-ylmethyl)amino]pyridin-4-yl}oxy)benzonitrile] | 0.5 | 3.2 | 0.6 | 28 | 62 | 46 | > 833 | – | – | – | –
7 | N#Cc1cc(Cl)cc(Oc2c(C(F)(F)F)ccn(Cc3n[nH]c4ncccc34)c2=O)c1 [Compound 13-2, 3-chloro-5-{[2-oxo-1-(1H-pyrazolo[3,4-b]pyridin-3-ylmethyl)-4-(trifluoromethyl)-1,2-dihydropyridin-3-yl]oxy}benzonitrile] | 1.6 | 2.6 | 2 | 4 | 6 | 8 | > 833 | – | – | – | –
8 | CN(Cc1ccccc1Cl)C(=O)Cn1ccc(C(F)(F)F)c(Oc2cc(Cl)cc(C#N)c2)c1=O [Compound 14, N-(2-chlorobenzyl)-2-[3-(3-chloro-5-cyanophenoxy)-2-oxo-4-(trifluoromethyl)pyridin-1(2H)-yl]-N-methylacetamide] | 300 | 440 | 290 | 330 | 284 | – | > 833 | – | – | – | –
9 | N#Cc1cc(Cl)cc(Oc2c(C(F)(F)F)ccn(CC(=O)Nc3ccc(S(N)(=O)=O)cc3Cl)c2=O)c1 [Compound 15, N-[4-(aminosulfonyl)-2-chlorophenyl]-2-[3-(3-chloro-5-cyanophenoxy)-2-oxo-4-(trifluoromethyl)pyridin-1 (2H)-yl]acetamide] | 3.3 | 4.8 | 3.9 | 10 | 6 | – | > 833 | – | – | – | –
10 | NS(=O)(=O)c1ccc(NC(=O)Cn2ccc(C(F)(F)F)c(Oc3cc(Cl)cc(Br)c3)c2=O)c(Cl)c1 [Compound 16, N-[4-(aminosulfonyl)-2-chlorophenyl]-2-[3-(3-bromo-5-chlorophenoxy)-2-oxo-4-(trifluoromethyl)pyridin-1(2H)-yl]acetamide] | 1.9 | 2.8 | 2.6 | 8 | 21 | 30 | > 833 | – | – | – | –
11 | N#Cc1cc(Cl)cc(Oc2c(C(F)(F)F)ccn(Cc3n[nH]c4nc(N)ccc34)c2=O)c1 [Compound 17-2, 3-{[3-(3-chloro-5-cyanophenoxy)-2-oxo-4-(trifluoromethyl)pyridin-1(2H)-yl]methyl}-1H-pyrazolo[3,4-b]pyridin-6-aminium trifluoroacetate] | – | – | – | – | 11 | 42 | > 833 | 1.9 | 3.1 | 2.4 | 6
12 | N#Cc1cc(C#N)cc(Oc2c(C(F)(F)F)ccn(Cc3n[nH]c4ncccc34)c2=O)c1 [Compound 18-4, 5-{[2-oxo-1-(1H-pyrazolo[3,4-b]pyridine-3-ylmethyl)-4-(trifluoromethyl)-1,2-dihydropyridin-3-yl]oxy}isophthalonitrile] | 3.4 | 5.1 | 4.1 | 7 | 6 | 8 | > 833 | – | – | – | –
13 | O=c1c(Oc2cc(Cl)cc(Cl)c2)c(C(F)(F)F)ccn1Cc1n[nH]c2ncccc12 [Compound 19-4, 3-(3,5-dichlorophenoxy)-1-(1H-pyrazolo[3,4-b]pyridin-3-ylmethyl)-4-(trifluoromethyl)pyridin-2(1H)-one] | 1.1 | 2.1 | 1.5 | 9 | 21 | 48 | > 833 | – | – | – | –
14 | Cl.Nc1ccc2c(Cn3ccc(C(F)(F)F)c(Oc4cc(Cl)cc(Cl)c4)c3=O)n[nH]c2n1 [Compound 20-3, 3-{[3-(3,5-dichlorophenoxy)-2-oxo-4-(trifluoromethyl)pyridin-1(2H)-yl]methyl}-1H-pyrazolo[3,4-b]pyridin-6-aminium chloride] | – | – | – | 20 | 87 | 169 | > 833 | 1.6 | 5.9 | 1.6 | –
15 | N#Cc1cc(Cl)cc(Oc2c(Cl)ccn(Cc3n[nH]c4ncccc34)c2=O)c1 [Compound 21-8, 3-chloro-5-{[4-chloro-2-oxo-1-(1H-pyrazolo[3,4-b]pyridin-3-ylmethyl)-1,2-dihydropyridin-3-yl]oxy}benzonitrile] | 0.8 | 1.4 | 1 | 3 | – | 8 | > 833 | – | – | – | –
16 | N#Cc1cc(Cl)cc(Oc2c(Cl)ccn(Cc3n[nH]c4nc(N)ccc34)c2=O)c1.O=C(O)C(F)(F)F [Compound 22, 3-({1-[(6-amino-1H-pyrazolo[3,4-b]pyridin-3-yl)methyl]-4-chloro-2-oxo-1,2-dihydropyridin-3-yl}oxy)-5-chlorobenzonitrile trifluoroacetate] | – | – | – | 2 | 7 | 63 | > 833 | 1.3 | 2.1 | 1.8 | –
